4 compounds from patent publication US7556938B1, “Nucleic acids encoding potassium channel interactors” (Millennium Pharmaceuticals, Inc., priority 1998, dated 2009) can be followed below.

Structures are written as SMILES.

Assay [1] has as its system Kv4.3. The assay can be described thus: Fatty acid modulation of Kv4.3 current (Kv4.3 alone) in Xenopus oocytes. The format is cell-based, rat. The settings on record: Kv4.3 alone, 10 μM fatty acid, vs no-fatty acid control. The method, then:
(§1) Frogs underwent no more than two surgeries and surgeries were performed by well established techniques. Frogs were anesthetized with ice. Total cRNA (1-10 ng) was injected into stage IV Xenopus oocytes that were harvested the previous day. The Xenopus oocytes were incubated in ND96 containing (in mM) 96 NaCl, 2 KCl, 1.8 CaCl2, 1 MgCl2, 5 HEPES, pH 7.6, plus (Gentamycin 50 μg/ml) at 18° C. Xenopus oocytes were studied 3-7 days after injection. The two-electrode voltage-clamp recordings were performed in ND96 solution using a TURBO TEC 03 Clamp Amplifier (ALA Scientific Instruments, Westbury, N.Y.). Both electrodes were filled with 3 M KCl and had electrode resistances ranging from 0.2-1 MOhm. The current signals were filtered at 1000 Hz before transferred on a PC (Gateway, Calif.) using the PULSE software (HEKA, Germany). In this Example, the hypothesis that […] were the missing auxiliary subunits that accounted for the above kinetic discrepancy was investigated by expressing Kv4 alone or together with […] in both CHO cells and Xenopus oocytes, and measuring their inactivation time constants (using art known techniques as described in, for example, An et al. (2000) Nature 403:553-6; Keros, S. and […]. Neuroscience 17: 3476-87; and Villarroel, A. and […]. Neuroscience 16:2522-32). The effects of different concentrations of arachidonic acid on Kv4/KChIP current was studied in Xenopus oocytes. Because the physiological concentrations of arachidonic acid are often under 10 μM (Needleman, et al., 1986 Annu Rev Biochem 55:69-102; Anderson and Welsh, 1990, Proc Natl Acad Sci USA 87:7334-8; Meves, 1994, Prog Neurobiol 43:175-86), arachidonic acid was tested in the 1-10 μM range. […] Further, the slope of amplitude reduction as a function of increasing concentrations was very similar with or without the presence of […]. […] Villarroel and Schwarz, (1996) J.

The target of assay [2] is T1, Kv4.3/KChIP1 (Rattus norvegicus, UniProt Q62897).
T1 sequence (Q62897 1-655): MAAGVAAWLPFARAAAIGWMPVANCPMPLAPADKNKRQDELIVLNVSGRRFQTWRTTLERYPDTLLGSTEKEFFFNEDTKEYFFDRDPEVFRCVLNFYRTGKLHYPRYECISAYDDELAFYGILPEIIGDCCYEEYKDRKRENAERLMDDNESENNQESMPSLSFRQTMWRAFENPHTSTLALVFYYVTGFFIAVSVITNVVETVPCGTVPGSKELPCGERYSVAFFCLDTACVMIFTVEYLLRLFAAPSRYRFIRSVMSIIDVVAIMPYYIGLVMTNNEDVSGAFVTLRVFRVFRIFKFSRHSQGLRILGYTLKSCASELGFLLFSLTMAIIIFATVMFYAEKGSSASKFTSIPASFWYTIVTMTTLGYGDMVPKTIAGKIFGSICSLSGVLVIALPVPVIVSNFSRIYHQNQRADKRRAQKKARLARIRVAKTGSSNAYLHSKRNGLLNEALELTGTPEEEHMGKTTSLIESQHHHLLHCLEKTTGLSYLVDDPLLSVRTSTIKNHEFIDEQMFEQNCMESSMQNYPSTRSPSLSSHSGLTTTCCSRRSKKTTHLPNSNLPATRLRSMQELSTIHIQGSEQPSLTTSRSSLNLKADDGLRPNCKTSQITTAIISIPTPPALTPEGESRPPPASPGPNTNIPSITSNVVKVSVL
T1 sequence (Q8R426 1-216 isoform Q8R426-2 partner): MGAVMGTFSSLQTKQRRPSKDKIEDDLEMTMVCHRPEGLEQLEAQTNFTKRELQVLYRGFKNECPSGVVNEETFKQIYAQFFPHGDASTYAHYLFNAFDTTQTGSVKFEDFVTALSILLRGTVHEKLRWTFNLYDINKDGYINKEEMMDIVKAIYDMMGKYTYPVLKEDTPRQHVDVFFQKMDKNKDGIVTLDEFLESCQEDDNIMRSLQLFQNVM
The assay can be described thus: Fatty acid modulation of Kv4.3/KChIP1 current in Xenopus oocytes. To be noted: for block of Kv4.3 peak amplitude: Kv4.3/KChIP1, 10 μM fatty acid, vs no-fatty acid control; for effect on Kv4.3 inactivation time constant: Kv4.3 co-expressed with KChIP1, 10 μM fatty acid. The format is cell-based. The method, then:
as §1

For the compound `CCCCC/C=C/C/C=C/CCCCCCCC(=O)O` [linolelaidic acid], the “block of Kv4.3 peak amplitude” value in assay [1] is on record as “All values except that of linolelaidic acid/Kv4.3 alone were statistically significant”. Moreover, in assay [2], the “block of Kv4.3 peak amplitude” value is on record as “small, statistically significant block” and the “effect on Kv4.3 inactivation time constant” value is “did not affect the Kv4.3 inactivation time constant”.
The matching figures for `CCCCC/C=C\C/C=C\C/C=C\CCCCC(=O)O` [γ-linolenic acid]: “inhibited significantly”, “inhibited significantly” and “reduced Kv4.3 inactivation time constant”.
On the same counts, the results for `CCCCCCCCC#CCC#CCC#CCCCC(=O)O` [ETI, 5,8,11-eicosatriynoic acid] are “inhibited significantly”, “inhibited significantly” and “reduced Kv4.3 inactivation time constant”.
Consider `CCCCCC#CCC#CCC#CCC#CCCCC(=O)O` [ETYA, 5,8,11,14-eicosatetraynoic acid], for which the “block of Kv4.3 peak amplitude” value in assay [1] was “inhibited significantly”. For the same compound, in assay [2], the “block of Kv4.3 peak amplitude” value is recorded as “inhibited significantly” and the “effect on Kv4.3 inactivation time constant” value is “reduced Kv4.3 inactivation time constant”.
